Measurements published in BindingDB's records for doi:10.1016/0960-894X(95)00250-W (1995).

These compounds were tested against Receptor-type tyrosine-protein phosphatase C (Homo sapiens) (UniProt P08575) (assay: In vitro inhibitory activity against recombinant CD45 protein tyrosine phosphatase).
Receptor-type tyrosine-protein phosphatase C (Homo sapiens), sequence (P08575 whole entry, looked up): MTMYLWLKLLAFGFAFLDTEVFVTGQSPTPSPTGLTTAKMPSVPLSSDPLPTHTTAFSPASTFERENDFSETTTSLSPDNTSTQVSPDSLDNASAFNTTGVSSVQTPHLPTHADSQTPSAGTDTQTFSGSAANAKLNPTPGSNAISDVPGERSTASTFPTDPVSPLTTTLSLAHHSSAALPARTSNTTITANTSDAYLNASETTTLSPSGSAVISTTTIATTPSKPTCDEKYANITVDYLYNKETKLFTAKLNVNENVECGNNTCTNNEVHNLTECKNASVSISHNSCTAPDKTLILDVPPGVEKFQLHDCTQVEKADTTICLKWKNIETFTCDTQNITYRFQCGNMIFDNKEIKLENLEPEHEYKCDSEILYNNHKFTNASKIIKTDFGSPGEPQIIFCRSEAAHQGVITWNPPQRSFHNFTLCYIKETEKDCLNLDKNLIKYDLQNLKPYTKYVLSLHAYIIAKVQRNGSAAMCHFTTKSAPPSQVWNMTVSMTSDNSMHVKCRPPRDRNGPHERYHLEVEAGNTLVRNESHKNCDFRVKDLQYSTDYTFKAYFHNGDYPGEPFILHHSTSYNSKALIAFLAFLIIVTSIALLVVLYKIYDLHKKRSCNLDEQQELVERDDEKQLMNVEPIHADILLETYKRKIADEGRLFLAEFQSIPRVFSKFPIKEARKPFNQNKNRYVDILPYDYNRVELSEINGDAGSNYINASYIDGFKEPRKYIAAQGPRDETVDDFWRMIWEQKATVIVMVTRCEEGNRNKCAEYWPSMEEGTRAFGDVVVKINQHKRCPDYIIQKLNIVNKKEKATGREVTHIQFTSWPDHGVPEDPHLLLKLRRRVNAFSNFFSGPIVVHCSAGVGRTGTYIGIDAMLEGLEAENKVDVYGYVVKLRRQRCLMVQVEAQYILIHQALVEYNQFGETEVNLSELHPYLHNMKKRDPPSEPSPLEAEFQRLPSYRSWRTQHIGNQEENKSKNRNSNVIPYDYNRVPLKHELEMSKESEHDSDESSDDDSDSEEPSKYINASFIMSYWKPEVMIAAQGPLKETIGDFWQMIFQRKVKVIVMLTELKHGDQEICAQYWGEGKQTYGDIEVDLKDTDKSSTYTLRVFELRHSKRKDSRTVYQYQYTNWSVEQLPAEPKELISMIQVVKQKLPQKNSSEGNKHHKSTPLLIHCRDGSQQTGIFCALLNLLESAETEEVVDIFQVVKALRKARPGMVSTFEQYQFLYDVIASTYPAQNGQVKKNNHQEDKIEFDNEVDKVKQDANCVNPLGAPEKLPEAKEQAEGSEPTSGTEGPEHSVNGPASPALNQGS
With `O=C1c2ccccc2-c2c3c(cc4ccnc1c24)OCO3` [Liriodenine] the IC50 was 182 µM.
Compound `COc1cc2c3c(c1OC)-c1ccccc1C[C@@H]3NCC2` [(S)-1,2-Dimethoxy-5,6,6a,7-tetrahydro-4H-dibenzo[de,g]quinoline] has an IC50 of 5.3 µM.
`CN1CCc2cc3c(c4c2C1Cc1ccccc1-4)OCO3` (stereo not given) [7-Methyl-6,7,7a,8-tetrahydro-5H-benzo[g][1,3]dioxolo[4',5':4,5]benzo[1,2,3-de]quinoline] was tested, and the IC50 was 107 µM.
In the case of `COc1cc2c(cc1OC)-c1c(OC)c(OC)cc3c1[C@H](C2)N(C)CC3`, the IC50 is reported as 88 µM.
`c1ccc2c(c1)C[C@H]1NCCc3cc4c(c-2c31)OCO4` [(-)-anonaine] was tested, and the IC50 was 17 µM.
